Here are results for twelve molecules from ChEMBL document CHEMBL5252529, “Small Molecules in Development for the Treatment of Spinal Muscular Atrophy” (J Med Chem, 2016).

Data set [1] can be described thus: AUClast in Spinal muscular atrophy mouse plasma at 10 mg/kg, po by LC/MS-MS analysis. The class given is ADME, organism-based. Also on record: dose 10 mg/kg, route po.
Data set [2] can be described thus: AUClast in Spinal muscular atrophy mouse brain at 10 mg/kg, po by LC/MS-MS analysis. It is filed as ADME, organism-based. Also on record: dose 10 mg/kg, route po.
Data set [3] in a line: Toxicity in Spinal muscular atrophy mouse assessed as survival rate at 10 mg/kg, ip administered daily. The class given is organism-based. The following applies: in vivo.
Data set [4] in a line: Toxicity in Spinal muscular atrophy mouse assessed as survival rate at day 112 (reference value: 100 %). To be noted: in vivo.
Data set [5] can be described thus: Activation of rabbit psoas fast skeletal Myofibril. It is filed as tissue-based, Oryctolagus cuniculus, Muscle tissue.
A short description of data set [6]: Aqueous solubility of compound at pH 7.4. The class given is physicochemical. To be noted: buffer.
The nature of data set [7]: Half life in mouse liver microsomes. The class given is ADME, Microsome. In general terms: Liver microsomes are a subcellular fraction often used to study metabolism.
A short description of data set [8]: Toxicity in Spinal muscular atrophy mouse assessed as survival rate after 5 days. The following applies: in vivo, 120 h, time 5 day.
A short description of data set [9]: Acute toxicity in Spinal muscular atrophy mouse assessed as survival rate. The following applies: in vivo.
Data set [10] in a line: Increase in SMN2 expression in human HEK293 cells assessed as luciferase reporter activity incubated for 24 hrs. (Reporter assays use an easily measured gene product as a stand-in for the process of interest.)
Data set [11] can be described thus: Toxicity in Spinal Muscular atrophy mouse assessed as increase in survival rate. To be noted: in vivo.
The next data set has as its target T1, m7GpppX diphosphatase (Homo sapiens, UniProt Q96C86).
T1 sequence (Q96C86 whole entry): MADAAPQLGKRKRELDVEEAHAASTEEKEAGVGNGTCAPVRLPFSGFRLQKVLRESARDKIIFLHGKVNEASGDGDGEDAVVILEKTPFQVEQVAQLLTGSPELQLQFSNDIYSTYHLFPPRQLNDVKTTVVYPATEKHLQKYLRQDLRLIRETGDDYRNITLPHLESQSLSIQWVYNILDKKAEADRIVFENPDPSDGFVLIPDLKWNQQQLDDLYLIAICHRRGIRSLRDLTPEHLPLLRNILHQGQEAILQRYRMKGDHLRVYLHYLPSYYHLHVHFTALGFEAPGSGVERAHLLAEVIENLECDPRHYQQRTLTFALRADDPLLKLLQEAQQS
Nature of the data set: Inhibition of human DcpS.

A short description of data set [12]: Half life in human serum measured upto 30 min by HPLC analysis.
Data set [13] can be described thus: Toxicity in Spinal muscular atrophy mouse assessed as survival rate (reference value: 15 %). To be noted: in vivo.
Data set [14] in a line: Brain to plasma ratio in Spinal muscular atrophy mouse at 3 mg/kg administered subcutaneously for 7 days. It is filed as ADME, organism-based. To be noted: route sc, time 7 day, read-out: BPR.
A short description of data set [15]: Brain to plasma ratio in Spinal muscular atrophy mouse at 3 mg/kg administered subcutaneously for 42 days. It is filed as ADME, organism-based. The following applies: route sc, time 42 day, read-out: BPR.
Data set [16] has as its system Mus musculus. Nature of the data set: Modulation of human SMN2 mRNA level in Spinal muscular atrophy mouse brain tissue at 10 mg/kg, po measured after 4 hrs. It is filed as functional.
In data set [17] the test system is Mus musculus. The data set can be described thus: Modulation of human SMN2 mRNA level in Spinal muscular atrophy mouse muscle tissue at 10 mg/kg, po measured after 4 hrs. The class given is functional.
Data set [18] is described as follows: Toxicity in Spinal muscular atrophy mouse assessed as survival rate at 0.3 mg/kg, ip administered daily for 40 days. It is filed as organism-based. To be noted: in vivo, 960 h, time 40 day.
Data set [19] can be described thus: Toxicity in Spinal muscular atrophy mouse assessed as survival rate at 1 to 3 mg/kg, po administered daily for 65 days. The class given is organism-based. The following applies: in vivo, 1560 h, dose 1-3 mg/kg, time 65 day.
Data set [20] deals with Mus musculus. The data set can be described thus: Modulation of human SMN2 protein level in Spinal muscular atrophy mouse model assessed as increase in protein level of brain tissue at 10 mg/kg, ip.
Data set [21] concerns Mus musculus. The data set can be described thus: Modulation of human SMN2 protein level in Spinal muscular atrophy mouse model assessed as increase in protein level of muscle tissue at 10 mg/kg, ip.

In brackets after ≈: the same amount, converted by molar mass.

Broadly, the AUC(0-t) is the area under the concentration-time curve up to a stated or last time point. High values mean high exposure, low ones low exposure. In the case of `Nc1nc(N)c2c(OCC3CCN(Cc4c(Cl)cccc4Cl)CC3)cccc2n1`, the AUC(0-t) was found to be 157 ng·h/mL in data set [1] and 6760 ng·h/mL in [2]. The Activity in data set [3] is reported as 26%; in data set [4] it was 27%.

By EC50 is commonly meant the concentration needed to bring the measured effect to its halfway point. For the molecule `C#Cc1cnc2nc(O)n(C(CC)CC)c2n1`, a half-maximal response in [5] (EC50) required 3.4 µM.

In general, solubility refers to the concentration that dissolves in the medium under given conditions. A high value points to a readily soluble substance. As a reminder, the half-life is the time needed for the level to fall by half in the phase considered. A lower half-life goes with fast loss. In data set [6], `CC(C)c1cc(C(=O)Nc2ccccc2)no1` came in with a solubility of 59 µM (≈ 13.6 µg/mL). The molecule further displayed a half-life in data set [7] of 5 min.

On to `CC(/C=C/C(=O)NO)=C\[C@@H](C)C(=O)c1ccc(N(C)C)cc1` [TRICHOSTATIN], for which the Activity is 19% in data set [8] and 40% in data set [9].

Take `COc1cc2c(c(OC)c1OC)C(c1cc(Br)ccc1F)CC(=O)N2` (stereo not drawn): the solubility in data set [6] is 4 µM (≈ 1.64 µg/mL). In data set [7], this molecule returned a half-life of 40 min. Besides, in [10], the EC50 at 24 h turned out to be 8.3 µM.

For `O=C(CCCCCCC(=O)Nc1ccccc1)NO` [VORINOSTAT], in data set [11], the Activity was 30%.

In data set [6], `CC(C)c1cc(C(=O)Nc2ccccn2)no1` had a solubility of 77 µM (≈ 17.8 µg/mL). In [7], this molecule registered a half-life of over 120 min.

What is called IC50 is the point on the concentration scale where inhibition reaches its midpoint. On to `Nc1nc(N)c2c(OCC3CCN(C(=O)c4cccc([125I])c4)CC3)cccc2n1`, for which the IC50 at m7GpppX diphosphatase was 0.036 µM.

`CCCC(=O)[O-].[Na+]` [SODIUM BUTYRATE]: in [12], the half-life at 0.5 h was 6 min.

As to `CC(C)CCC[C@@H](C)[C@H]1CC[C@H]2[C@@H]3CCC4=CC(=NO)CC[C@]4(C)[C@H]3CC[C@]12C` [OLESOXIME], in [13], the Activity was found to be 45%. Besides, the Kp at 168 h in data set [14] is 0.35. Further, the Kp at 1008 h in data set [15] was determined as 0.51.

For the molecule `CC(C)c1cc(C(=O)Nc2ccc(F)c(Cl)c2)no1`, in data set [6], the concentration in solution (solubility) came to 6 µM (≈ 1.7 µg/mL). In addition, the half-life in [7] was determined as 5 min.

For the molecule `CCN1CCC(c2cc(C)c3nc(-c4cc5c(C)nc(C)cn5n4)cc(=O)n3c2)CC1`, the Activity in the data set with Mus musculus [16] was 90%; in the data set with Mus musculus [17] it was 50%; in data set [18], 50%; in data set [19], 90%; in the data set with Mus musculus [20] it was 150%; in the data set with Mus musculus [21], 90%.
